# Experimental data: patent US20080107751A1, “Antimicrobial Wax Composition for Wax Therapy” (priority 2004, published 2008)
# Columns and labels:
# Staphylococcus aurea = assay: Growth and survival of Staphylococcus in molten wax composition; assay type: cell-based, Staphylococcus aureus
# Protocol: (§1) In its simplest form, the wax composition according to the present invention comprises a wax component and an antimicrobial component. The preferred wax is conventional, physio-therapy-grade paraffin wax that is solid at room temperature and has a melting point around 120° F. The preferred antimicrobial agent or component is triclosan, which is a phenolic, broad-spectrum antimicrobial that is generally regarded as safe for use on human skin, and even for ingestion by humans in small amounts. It is available from several sources, including Ciba Specialty Chemicals Corporation, 4090 Premier Drive, High Point, N.C. 27265. […] These bacteria were selected for testing as common human pathogens that are commonly found on the hands. Additionally, these pathogens also model the “survivability” of other pathogens that could be found in the melted wax.
# (§2) This is the preferred concentration of the triclosan antimicrobial in the molten wax composition according to the present invention. As disclosed in connection with the below examples, this is about 0.18-0.2% by weight of the total composition.
# E. Coli 0157 = assay: Growth and survival of E. Coli 0157 in molten wax composition; assay type: cell-based
# Protocol: as §1, §2
# human pathogens = assay: Growth of pathogens in molten wax composition containing triclosan; assay type: cell-based
# Protocol: as §1, §2
# The foregoing examples vary primarily in their fragrance and coloration. They are by way of example only and not intended to be by way of limitation. Variation of other components is regarded as within the invention. […]
# Streptococcus = assay: Growth and survival of Streptococcus in molten wax composition; assay type: cell-based; settings: triclosan 500 μg/ml up to 1000 μg/ml in molten wax
# Excerpt: as §2
# [1] = test system: Salmonella (both enteritidis and typhimurium strains); assay: Growth and survival of Salmonella in molten wax composition; assay type: cell-based
# Protocol: as §1, §2
# [2] = molten wax, versus absence of triclosan
# [3] = triclosan 500 μg/ml up to 1000 μg/ml in molten wax
smiles,measurement,setting,value
Oc1cc(Cl)ccc1Oc1ccc(Cl)cc1Cl [triclosan],time of survivability in wax composition,Staphylococcus aurea; molten wax,decrease
same,growth of bacteria in wax composition,Staphylococcus aurea; [2],inhibit growth
same,growth and survival,Staphylococcus aurea; [3],permitted growth and survival
same,time of survivability in wax composition,E. Coli 0157; molten wax,decrease
same,growth of bacteria in wax composition,E. Coli 0157; [2],inhibit growth
same,growth and survival,E. Coli 0157; [3],permitted growth and survival
same,concentration that inhibits the growth of both pathogens,"human pathogens; molten wax composition, about 0.18-0.2% by weight",2000 µg/mL
same,concentration found to inhibit growth of pathogens in wax,"human pathogens; wax maintained at 52.5° C. or 126.5° F., concentrations as low as",≥ 500 µg/mL
same,growth and survival,Streptococcus,permitted growth and survival
same,time of survivability in wax composition,[1]; molten wax,decrease
same,growth of bacteria in wax composition,[1]; [2],inhibit growth
same,growth and survival,"[1]; triclosan 500 μg/ml up to 1000 μg/ml in molten wax, Salmonella apparently eliminated by heat alone",not
